Reference: patent US12440471B2, “Compositions and methods for the treatment of bronchopulmonary dysplasia (BPD) and BPD-associated pulmonary hypertension” (AyuVis Research, Inc., priority 2021, dated 2025)

Key:
[1] = PK study in rat pups by SC or IV (plasma, BALF); format: in vivo; settings: for accumulation ratio using AUC(0-t): BALF, SC
hPBMC = assay: Secreted IL-10 and LPS induced TNF-α in hPBMC by ELISA; format: cell-based, human
Description: FIG. 26 C, Pretreatment (24 h) of AVR-48 to hPBMC followed by 6h of treatment with LPS (25 ng/ml) decreased the secreted TNF-α production in hPBMC cell supernatants. N=3.**p<0.01, ***p<0.001. One-way ANOVA.

pre-term lamb BPD model = assay: Pre-term lamb BPD model: respiratory severity score; format: in vivo
Description: A unique PT lamb model, developed by Dr. Albertine (University of Utah), was used to emulate the clinical setting for PT human infants with respiratory failure related to premature birth before the lungs are mature enough to support extra-uterine life. Both the PT lamb model and PT human infants are whole-organism physiological beings that have the setting of PT birth and prolonged ventilation support with oxygen-rich gas because of respiratory failure related to lung structural and functional immaturity, including surfactant deficiency. Ventilation support with oxygen-rich gas is for days, weeks, months, and is associated with co-morbidities of the brain, liver, distal ileum, and kidney injury, and inadequate nutrition and poor postnatal growth. This PT lamb model for BPD continues to provide mechanistic insights during the evolution of BPD (Joss-Moore, Metcalfe et al. 2010), development of multiple-organ dysfunction (Albertine 2012, Abdullah, Seidel et al. 2016), and long-term structural and functional impairments (Dahl, Bowen et al. 2018).
A dose range-finding study was conducted with the goal of treating two PT lambs with either a vehicle control or low, mid, and high doses of AVR-48 (compound 8) by twice daily intravenous infusions during 6 to 7 days of mechanical ventilation, followed by transition to noninvasive respiratory support (NIS) for 3 days, for a total of 10 days of management of these PT lambs. Compound 8 was not given during the period of noninvasive respiratory support to assess short-term persistence of effect of compound 8. The PK and PD parameters for compound 8 were also determined.
The modified PT lamb model used 6 d to 7 d of mechanical ventilation for respiratory management to identify temporal pathogenesis of the disease. […]
A total 9 lambs were used for this study. […] The PK parameters were calculated following both non-Compartmental Pharmacokinetic Modeling and population Pharmacokinetic Modeling as described by Roberts et al previously (Roberts, Stockmann et al. 2016). […] The blood samples also were analyzed for hematology and liver enzymes. […]

[2] = tested on: hyperoxia-exposed BPD mouse model; assay: BPD mouse model: western blot of lung homogenates; format: in vivo
Description: Western Blot Analysis. Western blot analyses for TLR4 (Cell Signaling Technology, Danvers, MA; 1:1000), Ang2 (1:500; Sigma, St. Louis, MO), TGFβ, NFkB, TNFα, IL-10, IL-1(3, IL-4, Vegf, eNos, Vegf-D, BmpRII, Vinculin (1:500; SantaCruz, Dallas, TX), were performed, as previously described (Leary, Das et al. 2019), by loading 30 μg of lung protein, followed by immunoblotting with the above antibodies and visualizing with Odyssey infrared imaging system (LI-COR Biosciences, Lincoln, NE). Densitometric quantification was done using ImageJ after normalizing with Vinculin, the loading control housekeeping protein.

[3] = PK study in mouse pups by IP and IN routes (plasma, lung tissue); format: in vivo
Description: Pharmacokinetic (PK) Profile of AVR-48 (compound 8). The PK studies of AVR-48 were developed and designed in-house, by high performance liquid chromatography (HPLC), in both mouse and rat pups by IV, IP and IN dosing, to check the bioavailability of the drug formulated as solution, suspension or nanoparticle encapsulation in plasma, broncho-alveolar lavage fluid (BALF) and lung tissues.
The first study was done in the plasma of mouse pups by IP and IN routes to determine the dose range for efficacy. […] For IN dosing, a Tmax of 1 h was found even with a dose of 0.22 mg/kg and rapid clearance was observed by 2 h.

[4] = tested on: adult respiratory distress syndrome/acute lung injury (ARDS/ALI) mouse model; settings: cited from earlier work
[5] = C57BL/6J, mouse, plasma, 10 mg/kg IP

Question: With CC(=O)N[C@@H]1C(Oc2ccc([N+](=O)[O-])cc2)OC(CO)C(O)C1O (stereo partly shown) [AVR-48] as the compound, how does the “accumulation ratio using AUC(0-t)” value ([1]; 100 mg/kg/day) read?
Answer: 1.90

Question: And the “accumulation ratio using AUC(0-t)” value ([1]; 150 mg/kg/day)?
Answer: 0.880

Question: What about the AUC(0-t) ([1]; Sprague Dawley Crl:CD, rat, in vivo, sc, AUC(0-t)) of the same compound?
Answer: 2610 ng·h/mL

Question: What about the “AUC(0-t) dose proportionality” value ([1]; rat, in vivo, sc, 75 mg/kg) of the same compound?
Answer: increased in a dose-proportional manner

Question: And the “secreted TNF-α production” value (hPBMC; 24 h pretreatment followed by 6 h LPS (25 ng/ml))?
Answer: decreased

Question: And the “secreted IL-10 levels” value (hPBMC; hPBMC supernatant, 24 h post treatment)?
Answer: dose dependently increased

Question: What about the “Respiratory Severity Score (RSS)” value (pre-term lamb BPD model; 3.0 mg/kg IV, n=4, lowest RSS) of the same compound?
Answer: 2.4

Question: What about the “Respiratory Severity Score (RSS) vs placebo” value (pre-term lamb BPD model; 1.0 and 3.0 mg/kg IV, 2/d, 7 days) of the same compound?
Answer: Significant improvement

Question: What about the “highest efficacious dose (RSS)” value (pre-term lamb BPD model; IV twice daily) of the same compound?
Answer: 3.0 mg/kg

Question: And the “inflammation in room air animals” value ([2]; RA+AVR-48 treated group)?
Answer: increased inflammation

Question: What about the IL-1β ([2]; lung homogenates, vs BPD) of the same compound?
Answer: marked decrease

Question: What about the IL-13 ([2]; lung homogenates, vs BPD) of the same compound?
Answer: marked decrease

Question: What about the TNFα ([2]; lung homogenates, vs BPD) of the same compound?
Answer: marked decrease

Question: What about the “nuclear factor kappa B (NFkB)” value ([2]; lung homogenates, vs BPD) of the same compound?
Answer: marked decrease

Question: And the “Angiopoetin 2 (Ang2)” value ([2]; lung, vs BPD)?
Answer: significantly decreased

Question: What about the Vegf-D protein ([2]; lung, vs BPD) of the same compound?
Answer: decreases

Question: What about the IL-10 ([2]; lung, vs BPD group) of the same compound?
Answer: increased

Question: What about the “Total vascular endothelial growth factor (Vegf)” value ([2]; lung, vs BPD group) of the same compound?
Answer: increased considerably

Question: What about the “bone morphometric protein receptor (BmpR)II” value ([2]; lung, vs BPD group) of the same compound?
Answer: significantly decreased

Question: What about the “endothelial nitric oxide synthase (eNOS)” value ([2]; lung, vs BPD group) of the same compound?
Answer: significantly decreased

Question: And the IL-4 ([2]; lungs, vs BPD group)?
Answer: decrease

Question: And the TGFβ ([2]; lungs, vs BPD group)?
Answer: decrease

Question: And the “TLR4 expression in the lungs” value ([2]; whole lung homogenates, after treatment)?
Answer: increase in the expression of TLR4

Question: And the Tmax ([3]; C57BL/6J, mouse, intraperitoneal, lung tissue, 10 mg/kg)?
Answer: 5 min

Question: And the Cmax ([3]; C57BL/6J, mouse, intraperitoneal, plasma, single IV or IP injection of 10 mg/kg)?
Answer: 5.78 ± 0.91 µM

Question: And the Tmax ([3]; C57BL/6J, mouse, plasma, other: intranasal (IN), IN dosing, 0.22 mg/kg)?
Answer: 60 min

Question: What about the Tmax ([3]; C57BL/6J, mouse, plasma, 0.22 mg/kg IP) of the same compound?
Answer: 5 min

Question: And the Tmax [3, 5]?
Answer: 5 min

Question: What about the half-life [3, 5] of the same compound?
Answer: 21.6 min

Question: And the “time by which rapid clearance was observed” value ([3]; IN dosing, 0.22 mg/kg)?
Answer: ≤ 2 h

Question: What about the clearance from circulation ([3]; following IP injection) of the same compound?
Answer: cleared from circulation rapidly

Question: And the “bioavailability in plasma and lungs, IN vs IP” value ([3]; solution formulation)?
Answer: similar

Question: And the efficacy dose ([4]; IV, Shah, Das et al. 2021)?
Answer: 10 mg/kg/dose

Question: And the severe lung inflammation ([4]; LPS-, hyperoxia- and CLP-induced ARDS in adult mice)?
Answer: decreases severe lung inflammation
